We go through six compounds from ChEMBL document CHEMBL1150977, “A quantitative analysis of kinase inhibitor selectivity” (Nat Biotechnol, 2008).

The target in experiment [1] is Mitogen-activated protein kinase kinase kinase 11 (Homo sapiens, UniProt Q16584).
For experiment [2], the target named is MAP kinase-interacting serine/threonine-protein kinase 2 (Homo sapiens, UniProt Q9HBH9).
Experiment [3] deals with T1, Activin receptor type-1B (Homo sapiens, UniProt P36896).
T1 sequence (P36896 whole entry): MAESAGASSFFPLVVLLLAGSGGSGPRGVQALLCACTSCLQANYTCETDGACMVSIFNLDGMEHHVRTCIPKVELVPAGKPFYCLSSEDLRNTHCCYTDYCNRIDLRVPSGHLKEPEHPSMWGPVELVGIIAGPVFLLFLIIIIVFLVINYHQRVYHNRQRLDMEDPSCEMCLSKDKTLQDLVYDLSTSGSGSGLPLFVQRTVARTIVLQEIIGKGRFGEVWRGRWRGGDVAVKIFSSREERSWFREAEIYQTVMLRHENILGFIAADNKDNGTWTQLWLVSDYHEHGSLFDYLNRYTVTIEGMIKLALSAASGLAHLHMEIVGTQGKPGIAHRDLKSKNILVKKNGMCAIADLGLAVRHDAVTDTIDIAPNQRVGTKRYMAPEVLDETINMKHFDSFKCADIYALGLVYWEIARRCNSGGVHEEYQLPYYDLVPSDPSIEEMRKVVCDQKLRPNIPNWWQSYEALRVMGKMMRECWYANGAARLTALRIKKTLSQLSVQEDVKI

Experiment [4] concerns the target Serine/threonine-protein kinase MRCK gamma (Homo sapiens, UniProt Q6DT37).
Experiment [5] deals with T2, Serine/threonine-protein kinase PLK4 (Homo sapiens, UniProt O00444).
T2 sequence (O00444 whole entry): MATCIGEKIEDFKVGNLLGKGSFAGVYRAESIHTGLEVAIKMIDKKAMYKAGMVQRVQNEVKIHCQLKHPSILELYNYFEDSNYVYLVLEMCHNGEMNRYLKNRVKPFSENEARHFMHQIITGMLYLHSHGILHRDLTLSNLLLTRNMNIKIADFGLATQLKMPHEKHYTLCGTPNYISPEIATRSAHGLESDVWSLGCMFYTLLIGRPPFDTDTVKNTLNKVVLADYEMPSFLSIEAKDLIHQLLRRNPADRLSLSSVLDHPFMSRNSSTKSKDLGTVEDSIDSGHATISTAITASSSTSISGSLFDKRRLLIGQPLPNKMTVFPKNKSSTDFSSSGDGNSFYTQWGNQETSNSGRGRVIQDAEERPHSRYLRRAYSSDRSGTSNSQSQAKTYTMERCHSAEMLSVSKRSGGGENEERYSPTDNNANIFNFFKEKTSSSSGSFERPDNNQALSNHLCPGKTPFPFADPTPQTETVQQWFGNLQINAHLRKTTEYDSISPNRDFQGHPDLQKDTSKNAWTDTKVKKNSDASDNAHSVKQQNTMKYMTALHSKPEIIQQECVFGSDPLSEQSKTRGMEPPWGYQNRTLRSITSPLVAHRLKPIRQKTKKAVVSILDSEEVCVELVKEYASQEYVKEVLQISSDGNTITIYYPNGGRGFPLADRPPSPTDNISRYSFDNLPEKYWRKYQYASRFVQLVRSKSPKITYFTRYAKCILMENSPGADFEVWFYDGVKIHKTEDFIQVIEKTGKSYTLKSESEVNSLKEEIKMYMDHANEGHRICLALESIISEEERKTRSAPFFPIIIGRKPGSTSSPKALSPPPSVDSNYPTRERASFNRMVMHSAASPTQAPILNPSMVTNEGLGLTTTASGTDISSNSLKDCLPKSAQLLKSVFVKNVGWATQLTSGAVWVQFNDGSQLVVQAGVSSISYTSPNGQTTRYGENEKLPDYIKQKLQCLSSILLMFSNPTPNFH

Experiment [6] addresses Mast/stem cell growth factor receptor Kit (Homo sapiens, UniProt P10721, V559D).
Experiment [7] addresses T3, Serine/threonine-protein kinase BRSK2 (Homo sapiens, UniProt Q8IWQ3).
T3 sequence (Q8IWQ3 whole entry): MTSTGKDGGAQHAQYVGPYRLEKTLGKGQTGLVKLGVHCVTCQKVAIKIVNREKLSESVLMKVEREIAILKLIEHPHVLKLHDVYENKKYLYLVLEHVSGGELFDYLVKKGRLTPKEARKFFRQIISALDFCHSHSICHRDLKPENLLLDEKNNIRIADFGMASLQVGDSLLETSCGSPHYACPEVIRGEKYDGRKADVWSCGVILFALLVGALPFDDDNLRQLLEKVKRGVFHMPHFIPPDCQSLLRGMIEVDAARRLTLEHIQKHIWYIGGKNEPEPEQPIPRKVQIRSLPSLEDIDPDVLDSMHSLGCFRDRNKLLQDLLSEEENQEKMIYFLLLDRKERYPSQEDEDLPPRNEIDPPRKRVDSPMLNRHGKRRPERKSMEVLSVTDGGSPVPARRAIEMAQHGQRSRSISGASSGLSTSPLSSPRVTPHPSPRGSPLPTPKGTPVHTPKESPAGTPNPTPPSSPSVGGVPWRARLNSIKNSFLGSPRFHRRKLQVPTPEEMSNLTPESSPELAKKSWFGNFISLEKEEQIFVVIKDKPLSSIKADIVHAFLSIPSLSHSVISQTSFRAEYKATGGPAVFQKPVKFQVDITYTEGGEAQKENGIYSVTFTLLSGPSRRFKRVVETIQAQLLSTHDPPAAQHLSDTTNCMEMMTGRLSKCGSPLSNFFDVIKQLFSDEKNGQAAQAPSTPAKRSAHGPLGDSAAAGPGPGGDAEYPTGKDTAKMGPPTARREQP

Experiment [8] deals with Serine/threonine-protein kinase 32C (Homo sapiens, UniProt Q86UX6).
The target of experiment [9] is Ephrin type-A receptor 7 (Homo sapiens, UniProt Q15375).
The target in experiment [10] is Receptor-type tyrosine-protein kinase FLT3 (Homo sapiens, UniProt P36888, ITD).
The target in experiment [11] is Serine/threonine-protein kinase B-raf (Homo sapiens, UniProt P15056).
Experiment [12] concerns the target Calcium/calmodulin-dependent protein kinase type 1 (Homo sapiens, UniProt Q14012).

Some results are limits rather than exact numbers.

Sequence of MAP kinase-interacting serine/threonine-protein kinase 2 (Q9HBH9 whole entry): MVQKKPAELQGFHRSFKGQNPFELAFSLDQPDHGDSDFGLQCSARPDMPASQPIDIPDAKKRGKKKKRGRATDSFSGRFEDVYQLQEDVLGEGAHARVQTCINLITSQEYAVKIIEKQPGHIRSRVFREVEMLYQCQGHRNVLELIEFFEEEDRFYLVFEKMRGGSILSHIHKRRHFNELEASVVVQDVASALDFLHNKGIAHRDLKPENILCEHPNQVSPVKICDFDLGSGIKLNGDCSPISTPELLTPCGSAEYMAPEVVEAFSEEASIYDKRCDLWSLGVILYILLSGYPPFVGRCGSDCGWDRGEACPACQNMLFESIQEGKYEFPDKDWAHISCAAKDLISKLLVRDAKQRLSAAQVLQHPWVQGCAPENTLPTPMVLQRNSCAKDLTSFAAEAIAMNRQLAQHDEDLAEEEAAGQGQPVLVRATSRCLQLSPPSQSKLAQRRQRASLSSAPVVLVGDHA
Sequence of Serine/threonine-protein kinase B-raf (P15056 whole entry): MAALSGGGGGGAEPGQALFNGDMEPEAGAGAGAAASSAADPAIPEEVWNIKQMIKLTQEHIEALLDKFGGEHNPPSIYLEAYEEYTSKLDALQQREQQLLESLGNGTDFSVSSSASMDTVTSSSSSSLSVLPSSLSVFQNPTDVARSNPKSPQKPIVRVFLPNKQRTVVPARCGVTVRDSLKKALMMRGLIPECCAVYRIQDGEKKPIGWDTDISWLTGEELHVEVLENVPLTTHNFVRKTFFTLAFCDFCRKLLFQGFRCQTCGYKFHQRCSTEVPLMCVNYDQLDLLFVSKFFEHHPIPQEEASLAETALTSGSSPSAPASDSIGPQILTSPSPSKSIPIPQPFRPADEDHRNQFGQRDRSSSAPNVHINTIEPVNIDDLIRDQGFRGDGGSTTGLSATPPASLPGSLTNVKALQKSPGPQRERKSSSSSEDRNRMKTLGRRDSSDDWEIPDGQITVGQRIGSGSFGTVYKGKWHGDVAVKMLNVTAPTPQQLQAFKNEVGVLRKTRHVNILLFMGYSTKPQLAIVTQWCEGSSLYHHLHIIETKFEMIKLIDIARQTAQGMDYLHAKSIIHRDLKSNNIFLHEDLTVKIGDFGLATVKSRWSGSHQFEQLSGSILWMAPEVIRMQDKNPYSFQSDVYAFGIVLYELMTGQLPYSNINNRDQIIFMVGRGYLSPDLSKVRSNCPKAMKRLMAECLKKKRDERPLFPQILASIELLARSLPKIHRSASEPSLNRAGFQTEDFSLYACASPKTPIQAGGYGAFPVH
Sequence of Calcium/calmodulin-dependent protein kinase type 1 (Q14012 whole entry): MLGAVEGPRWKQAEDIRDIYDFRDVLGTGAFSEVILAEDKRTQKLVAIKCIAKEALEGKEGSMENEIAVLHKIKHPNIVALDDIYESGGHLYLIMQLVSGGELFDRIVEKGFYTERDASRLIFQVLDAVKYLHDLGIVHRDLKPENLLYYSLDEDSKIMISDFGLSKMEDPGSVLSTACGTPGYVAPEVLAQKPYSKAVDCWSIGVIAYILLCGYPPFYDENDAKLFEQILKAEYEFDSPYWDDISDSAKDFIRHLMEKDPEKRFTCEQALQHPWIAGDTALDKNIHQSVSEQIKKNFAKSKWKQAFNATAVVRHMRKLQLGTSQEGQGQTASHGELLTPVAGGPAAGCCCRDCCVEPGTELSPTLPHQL
Sequence of Mast/stem cell growth factor receptor Kit (P10721 26-976 V559D limits assumed): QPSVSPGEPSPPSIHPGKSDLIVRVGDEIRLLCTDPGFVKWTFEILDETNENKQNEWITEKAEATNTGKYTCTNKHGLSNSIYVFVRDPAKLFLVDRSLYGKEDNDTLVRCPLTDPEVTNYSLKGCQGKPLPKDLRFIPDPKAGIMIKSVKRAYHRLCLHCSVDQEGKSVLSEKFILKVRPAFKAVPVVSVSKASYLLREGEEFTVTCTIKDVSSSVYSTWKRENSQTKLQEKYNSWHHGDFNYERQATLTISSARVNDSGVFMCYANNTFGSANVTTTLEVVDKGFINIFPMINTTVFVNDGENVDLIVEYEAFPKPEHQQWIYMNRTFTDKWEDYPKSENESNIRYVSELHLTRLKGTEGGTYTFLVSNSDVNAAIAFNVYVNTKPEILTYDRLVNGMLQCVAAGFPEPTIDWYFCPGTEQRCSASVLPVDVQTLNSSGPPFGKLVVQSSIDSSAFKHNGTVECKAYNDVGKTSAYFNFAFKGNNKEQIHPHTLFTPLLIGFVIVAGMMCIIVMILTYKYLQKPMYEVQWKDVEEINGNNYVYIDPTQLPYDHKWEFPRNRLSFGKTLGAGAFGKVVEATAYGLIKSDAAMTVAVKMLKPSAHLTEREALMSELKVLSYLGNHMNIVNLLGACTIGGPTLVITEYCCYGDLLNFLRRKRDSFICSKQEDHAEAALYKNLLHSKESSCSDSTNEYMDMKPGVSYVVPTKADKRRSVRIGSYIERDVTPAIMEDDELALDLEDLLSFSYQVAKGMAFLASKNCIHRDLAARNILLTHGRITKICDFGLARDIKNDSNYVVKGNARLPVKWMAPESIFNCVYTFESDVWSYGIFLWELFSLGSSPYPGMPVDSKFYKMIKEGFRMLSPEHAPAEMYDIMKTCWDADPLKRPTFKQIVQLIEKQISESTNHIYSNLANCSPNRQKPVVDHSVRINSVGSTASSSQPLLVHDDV
Sequence of Receptor-type tyrosine-protein kinase FLT3 (P36888 whole entry, looked up, change not shown): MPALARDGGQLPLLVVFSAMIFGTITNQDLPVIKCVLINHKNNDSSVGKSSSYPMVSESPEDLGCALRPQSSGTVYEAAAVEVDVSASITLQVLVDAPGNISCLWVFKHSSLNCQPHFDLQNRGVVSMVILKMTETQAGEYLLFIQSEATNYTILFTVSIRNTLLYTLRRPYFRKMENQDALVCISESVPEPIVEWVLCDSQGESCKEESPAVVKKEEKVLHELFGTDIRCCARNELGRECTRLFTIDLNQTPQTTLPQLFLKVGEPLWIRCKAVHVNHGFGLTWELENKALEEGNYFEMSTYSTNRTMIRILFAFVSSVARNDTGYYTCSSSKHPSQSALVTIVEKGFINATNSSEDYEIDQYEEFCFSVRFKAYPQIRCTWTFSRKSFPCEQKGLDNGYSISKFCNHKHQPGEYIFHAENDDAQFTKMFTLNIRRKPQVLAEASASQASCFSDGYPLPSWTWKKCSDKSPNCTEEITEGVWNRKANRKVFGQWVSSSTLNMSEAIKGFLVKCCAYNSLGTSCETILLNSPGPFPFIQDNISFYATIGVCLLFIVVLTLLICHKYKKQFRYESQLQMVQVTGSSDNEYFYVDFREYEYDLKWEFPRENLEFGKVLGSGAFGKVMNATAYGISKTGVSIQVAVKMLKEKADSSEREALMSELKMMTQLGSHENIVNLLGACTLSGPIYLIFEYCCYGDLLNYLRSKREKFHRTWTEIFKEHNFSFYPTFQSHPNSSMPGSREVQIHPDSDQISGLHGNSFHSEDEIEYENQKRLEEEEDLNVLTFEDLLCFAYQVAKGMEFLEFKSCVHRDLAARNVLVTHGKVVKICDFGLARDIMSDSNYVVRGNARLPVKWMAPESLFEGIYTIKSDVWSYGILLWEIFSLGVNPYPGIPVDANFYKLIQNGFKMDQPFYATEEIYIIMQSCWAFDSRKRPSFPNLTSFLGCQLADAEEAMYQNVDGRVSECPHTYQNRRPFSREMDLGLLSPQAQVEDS
Sequence of Mitogen-activated protein kinase kinase kinase 11 (Q16584 whole entry): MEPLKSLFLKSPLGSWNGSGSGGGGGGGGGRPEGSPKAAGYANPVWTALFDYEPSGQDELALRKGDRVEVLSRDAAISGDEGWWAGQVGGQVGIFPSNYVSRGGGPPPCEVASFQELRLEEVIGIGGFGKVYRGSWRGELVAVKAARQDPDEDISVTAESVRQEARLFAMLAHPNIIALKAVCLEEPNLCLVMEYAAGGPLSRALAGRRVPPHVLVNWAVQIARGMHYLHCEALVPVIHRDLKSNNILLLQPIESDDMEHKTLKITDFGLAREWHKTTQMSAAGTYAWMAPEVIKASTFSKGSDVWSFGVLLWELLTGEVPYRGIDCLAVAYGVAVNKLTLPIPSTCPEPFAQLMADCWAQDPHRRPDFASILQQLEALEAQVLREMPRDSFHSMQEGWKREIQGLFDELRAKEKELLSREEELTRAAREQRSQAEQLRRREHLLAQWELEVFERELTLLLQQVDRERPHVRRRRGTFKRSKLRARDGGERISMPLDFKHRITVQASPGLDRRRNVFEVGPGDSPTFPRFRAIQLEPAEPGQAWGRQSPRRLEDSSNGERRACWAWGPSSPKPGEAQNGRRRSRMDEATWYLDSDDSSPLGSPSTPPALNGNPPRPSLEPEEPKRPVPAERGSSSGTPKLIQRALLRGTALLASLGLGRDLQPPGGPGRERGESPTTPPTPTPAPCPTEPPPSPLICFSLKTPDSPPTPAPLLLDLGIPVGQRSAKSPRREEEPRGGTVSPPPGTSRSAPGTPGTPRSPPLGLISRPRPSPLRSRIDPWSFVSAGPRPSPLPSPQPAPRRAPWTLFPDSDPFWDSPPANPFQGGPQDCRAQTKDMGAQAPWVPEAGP
Sequence of Serine/threonine-protein kinase 32C (Q86UX6 whole entry): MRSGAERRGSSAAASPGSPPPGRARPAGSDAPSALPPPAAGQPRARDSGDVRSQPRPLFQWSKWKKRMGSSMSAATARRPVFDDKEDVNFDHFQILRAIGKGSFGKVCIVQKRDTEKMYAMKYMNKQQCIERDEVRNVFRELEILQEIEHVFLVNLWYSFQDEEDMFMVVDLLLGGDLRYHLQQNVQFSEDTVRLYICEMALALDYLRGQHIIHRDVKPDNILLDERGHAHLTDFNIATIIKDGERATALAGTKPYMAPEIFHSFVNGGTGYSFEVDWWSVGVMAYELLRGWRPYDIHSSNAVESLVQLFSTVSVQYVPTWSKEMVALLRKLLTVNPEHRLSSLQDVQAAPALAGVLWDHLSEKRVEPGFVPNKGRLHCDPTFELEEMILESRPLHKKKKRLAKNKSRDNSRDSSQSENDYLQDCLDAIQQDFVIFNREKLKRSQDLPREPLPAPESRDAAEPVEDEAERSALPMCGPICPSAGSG

For the compound `CCN1CCN(Cc2ccc(NC(=O)Nc3ccc(Oc4cc(NC)ncn4)cc3)cc2C(F)(F)F)CC1` [AST-487], the Kd in experiment [1] is over 10 µM.
With `COCC(=O)NC/C=C/c1ccc2ncnc(Nc3ccc(Oc4ccc(C)nc4)c(C)c3)c2c1` [CP-724714], the Kd in experiment [2] is 0.84 µM; in experiment [3], over 10 µM; in [4] it was over 10 µM; in experiment [5], over 10 µM; in experiment [6], over 10 µM; in experiment [7], over 10 µM. Further, the dissociation constant (Kd) in experiment [8], in [9] and in experiment [10] was over 10 µM each time.
Regarding `Nc1nc(Nc2ccc(S(N)(=O)=O)cc2)nn1C(=O)c1c(F)cccc1F` [JNJ-7706621], the Kd in experiment [1], in experiment [2], in experiment [3], in experiment [11], in [12] and in experiment [4] was over 10 µM in each case. For the same compound, the Kd in experiment [5] was 0.12 µM; in experiment [7], 2.7 µM; in [8] it was over 10 µM; in [9], 3.1 µM.
`CCOc1cc2ncc(C#N)c(Nc3ccc(F)c(Cl)c3)c2cc1NC(=O)/C=C/CN(C)C` [PELITINIB]: the Kd in [2], in [3], in experiment [11], in experiment [12], in experiment [4] and in experiment [5] was over 10 µM throughout. For the same compound, the Kd in [6], in experiment [7], in experiment [8], in [9] and in [10] was over 10 µM in each case.
As to `Oc1ccc(-c2nc(-c3ccncc3)c(-c3ccc(F)cc3)[nH]2)cc1` [SB-202190], the Kd in [1] is over 10 µM; in [2] it was over 10 µM; in experiment [3] it was 0.95 µM; in experiment [11], 4.8 µM; in experiment [12], over 10 µM; in experiment [4], 0.64 µM. In addition, the Kd in [5], in experiment [6], in experiment [7], in experiment [8], in experiment [9] and in experiment [10] was over 10 µM throughout.
`NC(=O)c1ccc(-c2nc(-c3ccc4c(c3)OCO4)c(-c3ccccn3)[nH]2)cc1` [SB-431542]: the Kd in experiment [1], in experiment [2], in [12], in experiment [4], in experiment [5] and in [6] was over 10 µM each time. For the same compound, the Kd in experiment [7], in [8] and in experiment [9] was over 10 µM each time.
